Data: US10174314B2, “MiRNA for treating head and neck cancer” (INTERNA TECHNOLOGIES B.V., priority 2011, dated 2019)
pIC50: −log10 of the molar value. Entries after “also recorded” stand apart in the source; their conditions may differ.

Tests used:
[1] = system: VU-SCC-120; experiment: ATM inhibitor treatment, CellTiter-Blue cell viability; format: cell-based, human
Procedure: (§1) Both ciOKC and VU-SCC-120 cells were subjected to a concentration range of 40-0.075 μM ATM inhibitor CP466722 (Axon Medchem, Groningen, The Netherlands). After 72 hours cell viability was assessed with the CellTiter-Blue® cell viability assay.

[2] = system: ciOKC cells; experiment: as above; format: cell-based, human; details: 72 hours
Procedure: as §1

[3] = system: ATM expression; experiment: Knockdown of endogenous ATM expression by shRNA constructs, qRT-PCR in ciOKC; format: cell-based, human; details: ciOKC transduced with shRNA; qRT-PCR vs control construct
Procedure: (§2) Viral supernatants were produced by co-transfection of HEK239T cells using FuGENE® 6 (Roche diagnostics, Woerden, The Netherlands) with the pLKO.1 short-hairpin vector together with the packaging and envelop vectors. Both ciOKC and VU-SCC-120 (HNSCC cell line) were transduced with lentiviruses at two following days for four hours in the presence of 3 μg/ml polybrene (Sigma-Aldrich, Zwijndrecht, The Netherlands). In total 48 hours after transduction, cells were subjected to puromycin selection. For ciOKC this was two days 5 μg/ml and subsequently 5 days of 10 μg/ml puromycin (Sigma-Aldrich). For VU-SCC-120 the selection was performed with 1 μg/ml for seven days.
Total RNA was isolated using the mirVana™ miRNA isolation kit (Ambion, Nieuwerkerk aan den IJssel, The Netherlands) according to the instructions of the manufacturer with as only modification that the columns were eluted by 2×25 μl elution buffer. Expression of hsa-miR-181a, hsa-miR-323, hsa-miR-326, hsa-miR-342, hsa-miR-345 and hsa-miR-371 was analyzed by Taqman® microRNA assays following the instructions of the manufacturer (Applied biosystems, Nieuwerkerk aan den IJssel, The Netherlands). ATM expression was analysed by Taqman® gene expression assay. […] Quantitative RT-PCR reactions without reverse transcriptase were carried out in parallel for each RNA sample to exclude signal by contaminating DNA. […]

[4] = system: tumour cell lines; experiment: Synthetic mimic/siRNA transfection, CellTiter-Blue cell viability, panel of cell lines; format: cell-based, human; details: 30 nM mimic, 96 hours after transfection
Procedure: (§3) Cells were plated and transfected with miRIDIAN microRNA mimics miR-181a, miR-181a*, miR-181a-2, miR-323-5p, miR-323-3p, miR-326-5p, miR-345-5p, miR-342-3p, miR-342-5p, miR-371-3p, miR-371-5p and non-targeting Mimic Negative Control#1 (Dharmacon, Thermo Fisher Scientific, Lafayette, Colo.) in 96-well flat bottom plates (Greiner Bio-One B.V., Alphen a/d Rijn, The Netherlands). MicroRNA mimic for miR-3157 was obtained from Ambion. The non-targeting siCONTROL#1, and the siRNA PLK1 SMARTpool (Dharmacon) were used as negative and positive controls, respectively. Cells were transfected with […] mimic/siRNA and cell line dependent amounts of DharmaFECT1 (Dharmacon) (Table 6). Cell viability was determined, 96 hours after transfection, by adding CellTiter-Blue reagent (Promega, Leiden, The Netherlands). After two hours of incubation at 37° C. fluorescence was analyzed at 540 nm excitation and 590 nm emission wavelength using an Infinite F200 microplate reader (Tecan, Giessen, The Netherlands).
(§4) The cell proliferation has been assessed 96 hours after the transfection of nucleic acids using Dharmafect and the read-out based on the Alamar Blue (resazurin) fluorescent dye for the assessment of mammalian cell cytotoxicity.

[5] = system: precursor line M3; experiment: Synthetic mimic transfection, cell viability; format: cell-based, human; details: 30 nM mimic, 96 hours after transfection
Procedure: as §3, §4

[6] = system: UM-SCC-11B; experiment: miRNA-3157 mimic transfection, cell viability; format: cell-based, human; details: 30 nM, 96 hours
Procedure: as §3, §4

[7] = system: VU-SCC-059; experiment: miRNA-3157 mimic transfection, cell viability; format: cell-based, human; details: 30 nM, 96 hours
Procedure: as §3, §4

[8] = system: VU-SCC-120; experiment: miRNA-3157 mimic transfection, cell viability; format: cell-based, human; details: 30 nM, 96 hours
Procedure: as §3, §4

[9] = system: normal keratinocytes; experiment: miRNA-3157 mimic transfection, cell viability; format: cell-based, human; details: 30 nM, 96 hours
Procedure: as §3
Normal oral keratinocytes were isolated and cultured as previously described (van Zeeburg et al., 2010). […]
as §4

[10] = system: melanoma or colorectal cancer cells; details: Poell et al. 2012; cited from earlier work
[11] = system: activated BRAF pathway; details: in melanoma or colorectal cancer cells; reported; cited from earlier work
[12] = system: VU-SCC-120; experiment: Lentiviral shRNA ATM knockdown, cell survival; format: cell-based, human; details: VU-SCC-120 vs ciOKC
Description: Lentiviral vectors with short-hairpin RNA sequences targeting ATM were obtained from the TRC short-hairpin library (Sigma-Aldrich, Zwijndrecht, the Netherlands) that is available at VU university medical center. Each shRNA sequence is complementary to an unique part of the ATM mRNA sequence.
as §2
Therefore we introduced five lentiviral shRNA constructs designed to specifically knockdown ATM expression. Each shRNA sequence was complementary to an unique part of the ATM mRNA sequence.

In the case of COc1cc2ncnc(-n3nc(-c4ccccn4)nc3N)c2cc1OC [CP466722], the pIC50 ([1]; VU-SCC-120, 72 hours) was 5.59, the “change of IC50 ciOKC to VU-SCC-120” value ([1]; p-value <0.05 by T-testing) was 3 fold and the pIC50 [2] was 5.09.

In the case of “ATM shRNA number 5: lentiviral pLKO.1 short-hairpin construct targeting ATM from the TRC library; probably SEQ ID NO: 359 (CCGGGCCGTCAACTAGAACATGATACTCGAGTATCATGTTCTAGTTGACGGCTTTTTG)”, the “downregulation of ATM expression levels” value [3] was “no significant downregulation”.

In the case of “miRNA-3157: microRNA mimic for miR-3157 from Ambion; mature UUCAGCCAGGCUAGUGCAGUCU (SEQ ID NO: 364) (listed as RNA, chemistry not given here)”, the “cell viability in tumour cell lines” value [4] was “lethal for three out of four tumor cell lines”, the “cell viability in precursor line M3” value [5] was “not lethal” and the cell viability [6] was “inhibits cell viability”. For the same compound, the cell viability [7] was “inhibits cell viability”, the cell viability [8] was “inhibits cell viability” and the cell viability [9] was “not lethal; also recorded: does not inhibit cell viability”. The “lethality to melanoma or colorectal cancer cells” value [10] was “lethal” and the “inhibition of activated BRAF pathway” value [11] was “selective inhibitor of activated BRAF pathway”.

In the case of “mimic 323-5p: miRIDIAN microRNA mimic (Dharmacon); AGGUGGUCCGUGGCGCGUUCGC (SEQ ID NO: 22) (listed as RNA, chemistry not given here)”, the “cell viability in tumour cell lines” value [4] was “cause a decrease in all tumour cell lines”.

In the case of “shRNA ATM1: lentiviral pLKO.1 short-hairpin construct targeting ATM from the TRC library; probably SEQ ID NO: 355 (CCGGCCTGCCAACATACTTTAAGTACTCGAGTACTTAAAGTATGTTGGCAGGTTTTTG)”, the “toxicity in the tumour cell line as compared to the ciOKC cells (therapeutic window)” value [12] was “at least 8 times”.
